Laboratory results as given in PMC11411213 (Journal of Molecular Cell Biology, 2024).
Where two headings read alike, the source gives them in different places.

Key:
Assay type in all cases: cell-based
[1] = system: SARS-CoV-2 Omicron variant
SARS-CoV-2 Wuhan variant [2] = assay: microbe, parasite or virus in culture
SARS-CoV-2 Wuhan variant [3] = system: SARS-CoV-2 Wuhan variant
SARS-CoV-2 Alpha variant = assay: microbe, parasite or virus in culture
SARS-CoV-2 Delta variant = assay: microbe, parasite or virus in culture
SARS-CoV-2 D614G variant = system: SARS-CoV-2 D614G variant
[4] = Severe acute respiratory syndrome coronavirus 2, Calu-3

| Molecule | antiviral activity after a single replication cycle (viral titre, in words) [1] | IC50 (SARS-CoV-2 Wuhan variant [2]; read-out: IC50) [nM] | antiviral activity after a single replication cycle (viral titre, in words) (SARS-CoV-2 Wuhan variant [3]) | SI (selectivity index) (SARS-CoV-2 Alpha variant) | IC50 (SARS-CoV-2 Alpha variant; [4]) [nM] | SI (selectivity index) (SARS-CoV-2 Wuhan variant [2]) | IC50 (SARS-CoV-2 Wuhan variant [2]; [4]) [nM] | SI (selectivity index) (SARS-CoV-2 Delta variant) | IC50 (SARS-CoV-2 Delta variant; [4]) [nM] | IC50 (SARS-CoV-2 D614G variant) [nM] | IC50 (SARS-CoV-2 Alpha variant; read-out: IC50) [nM] | IC50 (SARS-CoV-2 Delta variant; read-out: IC50) [nM] |
| --- | --- | --- | --- | --- | --- | --- | --- | --- | --- | --- | --- | --- |
| N-acetyl cysteine [NAC] | effective against the Omicron variant | 549000 | strong antiviral activity |  |  |  |  |  |  |  |  |  |
| O=C(O)c1cc(/N=N/c2ccc(S(=O)(=O)Nc3ccccn3)cc2)ccc1O [Sulfasalazine] |  |  |  | > 23.87 | 20900 ± 4230 | > 20.51 | 24400 ± 5370 | > 20.82 | 24000 ± 3200 | 20000 ± 2070 |  |  |
| N[C@@H](CCC(=O)N[C@@H](CS)C(=O)NCC(=O)O)C(=O)O [GSH, glutathione] | effective against the Omicron variant |  | strong antiviral activity |  |  |  |  |  |  |  |  |  |
| imidazole ketone erastin [IKE] | effective against the Omicron variant | 99 ± 8.12 | strong antiviral activity |  |  |  |  |  |  | 88.5 ± 105 | 79.9 ± 4.11 | 113 ± 3.71 |
| COc1cc(Nc2ncc(F)c(Nc3ccc4c(n3)NC(=O)C(C)(C)O4)n2)cc(OC)c1OC [Tamatinib] |  |  |  | 69.20 | 82.95 ± 0.68 |  | 103 ± 2.7 | 57.84 | 99.2 ± 1.4 | 115 ± 6.77 |  |  |
| COc1cc2c(Nc3ccc(Br)cc3F)ncnc2cc1OCC1CCN(C)CC1 [Vandetanib] |  |  |  | 123.55 | 30.4 ± 1.54 | 96.46 | 38.9 ± 2.4 | 72.91 | 51.5 ± 5.55 | 33.4 ± 2.72 |  |  |
| MKI-1 |  | 46.5 ± 1.8 |  |  |  |  |  |  |  | 46.4 ± 0.82 | 31.7 ± 4.18 | 48.4 ± 2.07 |
